Reference: patent publication US4051237A, “Glycopeptide antibiotics Bu-2231 A and B and process for producing same” (priority 1975, dated 1977)
Read-outs that look alike come from different tables or passages of the source.

How the values were obtained:
[1] = tested on: Walker 256 carcinosarcoma in ascitic form; conditions: for Effect MST %T/C / MST Days / Survivors Day 5 / Average Weight Change: Exp. #5501; for MST Days: Bu-2231 A and B as copper-free formate salts; for Survivors Day 5: toxicity evaluation; for Average Weight Change: recorded Day 5; for fold greater potency (vs bleomycin): Table II, copper-free formate salts;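 as to all read-outs here: female SD rats bearing intraperitoneally implanted ascites tumor cells, treated ip once a day for 8 days beginning on Day 1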
[2] = tested on: Bacillus subtilis PCI-219; assay: Paper disc-agar diffusion method
[3] = tested on: Lewis Lung carcinoma; conditions: for Effect MST %T/C / MST Days / Survivors Day 5: Exp. #55; for Survivors Day 5: toxicity evaluation
[4] = mice, sc, up to a dose of 50 mg./kg.
Procedure: The acute toxicity of copper-free Bu-2231 A and B was determined in mice by a single subcutaneous injection. Groups of 3 mice were used for each dose level and the body weight was recorded for 16 days.

[5] = 10 mcg/kg/day ip once daily for 8 days
[6] = 40 mcg/kg/day ip once daily for 8 days
[7] = 160 mcg/kg/day ip once daily for 8 days
[8] = 640 mcg/kg/day ip once daily for 8 days
[9] = 0.5 mg/kg/day ip once daily for 9 days
[10] = 1 mg/kg/day ip once daily for 9 days
[11] = 2 mg/kg/day ip once daily for 9 days
[12] = 4 mg/kg/day ip once daily for 9 days
[13] = 8 mg/kg/day ip once daily for 9 days

SMILES | Effect MST %T/C [1, 5] [%] | MST Days [1, 5] [days] | Survivors Day 5 ([1]; 10 mcg/kg/day) | Effect MST %T/C [1, 6] [%] | MST Days [1, 6] [days] | Survivors Day 5 ([1]; 40 mcg/kg/day) | Effect MST %T/C [1, 7] [%] | MST Days [1, 7] [days] | Average Weight Change ([1]; 160 mcg/kg/day) | Survivors Day 5 ([1]; 160 mcg/kg/day) | Effect MST %T/C [1, 8] [%] | MST Days [1, 8] [days] | Survivors Day 5 ([1]; 640 mcg/kg/day) | fold greater potency (vs bleomycin) [1] [fold] | solubility (ethanol) | solubility (methanol) | solubility (other organic solvents) | solubility (water) | activity against B. subtilis PCI-219 [2] | Effect MST %T/C [3, 9] [%] | further results
Cc1c(N)nc([C@H](CC(N)=O)NC[C@H](N)C(N)=O)nc1C(=O)N[C@H](C(=O)N[C@H](C)[C@@H](O)CC(=O)N[C@H](C(=O)NC(O[C@@H]1O[C@@H](C)[C@@H](N)[C@@H](O)[C@H]1O)C(O)c1nc(-c2nc(C(=O)NCCCC(N)CC(=O)NCCCNCCCCN)cs2)cs1)[C@@H](C)O)[C@H](O[C@@H]1O[C@@H](CO)[C@@H](O)[C@H](O)[C@@H]1O[C@H]1O[C@H](CO)[C@@H](O)[C@H](OC(N)=O)[C@@H]1O)c1c[nH]cn1 (stereo partly shown) [Bu-2231 A] | 129 | 9.0 | 6/6 | 157 | 11.0 | 6/6 | 179 | 12.5 | +28.8 g. | 6/6 | 250 | 17.5 | 6/6 | 4 | slightly soluble | soluble | practically insoluble | soluble | active | 120 | activity against Lewis Lung Carcinoma (T/C >= 125 criterion) ([3]; 1 mg./kg.): just below an active level; MST Days [3, 9]: 26.5 days; Survivors Day 5 ([3]; 0.5 mg/kg/day): 6/6; Effect MST %T/C [3, 10]: 123%; MST Days [3, 10]: 27.0 days; Survivors Day 5 ([3]; 1 mg/kg/day): 6/6; Effect MST %T/C [3, 11]: 114%; MST Days [3, 11]: 25.0 days; Survivors Day 5 ([3]; 2 mg/kg/day): 6/6; Effect MST %T/C [3, 12]: 32%; MST Days [3, 12]: 7.0 days; Survivors Day 5 ([3]; 4 mg/kg/day): 6/6; Effect MST %T/C [3, 13]: 27%; MST Days [3, 13]: 6.0 days; Survivors Day 5 ([3]; 8 mg/kg/day): 6/6
Cc1c(N)nc([C@H](CC(N)=O)NC[C@@H](N)C(N)=O)nc1C(=O)N[C@H](C(=O)N[C@H](C)[C@@H](O)CC(=O)N[C@@H](C(=O)NC(O[C@@H]1O[C@@H](C)[C@@H](N)[C@@H](O)[C@H]1O)C(O)c1nc(-c2nc(C(=O)NCCCNCCCCN)cs2)cs1)[C@@H](C)O)C(O[C@@H]1O[C@@H](CO)[C@H](O)[C@@H](O)[C@@H]1O[C@H]1O[C@H](CO)[C@@H](O)[C@@H](OC(N)=O)[C@@H]1O)c1cnc[nH]1 (stereo partly shown) [Bu-2231 B] | 114 | 8.0 | 6/6 | 157 | 11.0 | 6/6 | 186 | 13.0 | +36.5 g. | 6/6 | 186 | 13.0 | 6/6 | 4 | slightly soluble | soluble | practically insoluble | soluble | active | 102 | Average Weight Change ([1]; 10 mcg/kg/day): +36.5 g.; Average Weight Change ([1]; 640 mcg/kg/day): +10.7 g.; death in acute toxicity test [4]: No death occurred; MST Days [3, 9]: 22.5 days; Survivors Day 5 ([3]; 0.5 mg/kg/day): 6/6; Effect MST %T/C [3, 10]: 134%; MST Days [3, 10]: 29.5 days; Survivors Day 5 ([3]; 1 mg/kg/day): 6/6; Effect MST %T/C [3, 11]: 136%; MST Days [3, 11]: 30.0 days; Survivors Day 5 ([3]; 2 mg/kg/day): 6/6; Effect MST %T/C [3, 12]: 48%; MST Days [3, 12]: 10.5 days; Survivors Day 5 ([3]; 4 mg/kg/day): 6/6; Effect MST %T/C [3, 13]: 27%; MST Days [3, 13]: 6.0 days; Survivors Day 5 ([3]; 8 mg/kg/day): 5/6; activity against Lewis Lung Carcinoma (T/C >= 125 criterion) ([3]; doses of 2 and 1 mg./kg.): active
